For the experiment, the system named is Pfeiffer cells, lymphoma cells having EZH2 mutation (A677G). Kind of experiment: Proliferation inhibition of cells of hematologic malignancies (CCK-8, 11 days). In kind it is cell-based. The following applies: 11 days culture, read-out: Cell proliferation inhibitory effect (IC50). On the procedure:
The growth inhibitory activity of 1,3-benzodioxole derivative compounds represented by chemical formula I of the present invention against Pfeiffer cells, which are lymphoma cells having EZH2 mutation (A677G), was evaluated.
Pfeiffer was cultured using RPMI1640 containing 10% fetal bovine serum. The cells were inoculated into wells of a 96-well culture dish at 10,000 cells each, and cultured for 11 days after treating with the test material for each concentration. For 11 days, the test material was replaced every three to four days. After culturing, the cells were treated with a cell counting kit-8 (CCK-8) reagent for each well, absorbance was measured at 450 nm, and IC50 values for cell proliferation were obtained through curve fitting of non-linear regression in the GraphPad program (GraphPad Prism 5.0 software).

Drawing on patent US20250059180A1 (DONG WHA PHARM. CO., LTD., priority 2022, published 2025), this text covers IC50 for 20 compounds.

Each structure is given as a SMILES string. pIC50: −log10 of the molar value. Read-outs that look alike come from different tables or passages of the source. Some results are limits rather than exact numbers.

Take `CCN(C)c1ccc(-c2cc(C(=O)NCc3c(SC)cc(C)[nH]c3=O)c(C)c3c2OC(C)(C2CCN(CC(F)F)CC2)O3)cn1` (single isomer, unassigned) [Compound 88, 2-(1-(2,2-difluoroethyl)piperidin-4-yl)-7-(6-(ethyl(methyl)amino)pyridin-3-yl)-2,4-dimethyl-N-((6-methyl-4-(methylthio)-2-oxo-1,2-dihydropyridin-3-yl)methyl)benzo[d][1,3]dioxole-5-carboxamide]: under “Homo sapiens, Pfeiffer, 264 h”, the pIC50 is at least 8.00.

Take `CCN1CCC(C2(C)Oc3c(-c4ccc(N(C)CC)nc4)cc(C(=O)NCc4c(SC)cc(C)[nH]c4=O)c(C)c3O2)CC1` (single isomer, unassigned) [Compound 89, 7-(6-(ethyl(methyl)amino)pyridin-3-yl)-2-(1-ethylpiperidin-4-yl)-2,4-dimethyl-N-((6-methyl-4-(methylthio)-2-oxo-1,2-dihydropyridin-3-yl)methyl)benzo[d][1,3]dioxole-5-carboxamide]: the pIC50 (Homo sapiens, Pfeiffer, 264 h) was at least 8.00.

As for `CSc1cc(C)[nH]c(=O)c1CNC(=O)c1cc(-c2ccc(N3C[C@@H](C)O[C@@H](C)C3)nc2)c2c(c1C)OC(C)([C@H]1CC[C@H](N(C)CC(F)(F)F)CC1)O2` (single isomer, unassigned) [Compound 107], the pIC50 was at least 8.00.

For `CSc1cc(C)[nH]c(=O)c1CNC(=O)c1cc(-c2ccc(N3C[C@@H](C)O[C@@H](C)C3)nc2)c2c(c1C)OC(C)([C@H]1CC[C@H](N(C)CC(F)(F)F)CC1)O2` (single isomer, unassigned) [Compound 108], the pIC50 is at most 7.00.

For the compound `CSc1cc(C)[nH]c(=O)c1CNC(=O)c1cc(-c2ccc(N3C[C@@H](C)O[C@@H](C)C3)nc2)c2c(c1C)OC(C)([C@H]1CC[C@H](N(C)C)CC1)O2` (stereo partly drawn) [Compound 1, 2-(trans-4-(dimethylamino)cyclohexyl)-7-(6-((2S,6R)-2,6-dimethylmorpholino)pyridin-3-yl)-2,4-dimethyl-N-((6-methyl-4-(methylthio)-2-oxo-1,2-dihydropyridin-3-yl)methyl)benzo[d][1,3]dioxole-5-carboxamide], the pIC50 (Homo sapiens, Pfeiffer, 264 h) was at least 8.00.

Take `CSc1cc(C)[nH]c(=O)c1CNC(=O)c1cc(-c2cnc(N3C[C@@H](C)O[C@@H](C)C3)nc2)c2c(c1C)OC(C)([C@H]1CC[C@H](N(C)C)CC1)O2` (stereo partly drawn) [Compound 2, 2-(trans-4-(dimethylamino)cyclohexyl)-7-(2-((2S,6R)-2,6-dimethylaminomorpholino)pyrimidin-5-yl)-2,4-dimethyl-N-((6-methyl-4-(methylthio)-2-oxo-1,2-dihydropyridin-3-yl)methyl)benzo[d][1,3]dioxole-5-carboxamide]: where the note is “Homo sapiens, Pfeiffer, 264 h”, the pIC50 is at least 8.00.

In the case of `CSc1cc(C)[nH]c(=O)c1CNC(=O)c1cc(-c2ccc(N3CCC(F)(F)CC3)nc2)c2c(c1C)OC(C)([C@H]1CC[C@H](N(C)C)CC1)O2` (stereo partly drawn) [Compound 3, 7-(6-(4,4-difluoropiperidin-1-yl)pyridin-3-yl)-2-(trans-4-(dimethylamino)cyclohexyl)-2,4-dimethyl-N-((6-methyl-4-(methylthio)-2-oxo-1,2-dihydropyridin-3-yl)methyl)benzo[d][1,3]dioxole-5-carboxamide], the pIC50 (Homo sapiens, Pfeiffer, 264 h) was at least 8.00.

Regarding `CSc1cc(C)[nH]c(=O)c1CNC(=O)c1cc(-c2cnc(N3CCCCC3)nc2)c2c(c1C)OC(C)([C@H]1CC[C@H](N(C)C)CC1)O2` (stereo partly drawn) [Compound 4, 2-(trans-4-(dimethylamino)cyclohexyl)-2,4-dimethyl-N-((6-methyl-4-(methylthio)-2-oxo-1,2-dihydropyridin-3-yl)methyl)-7-(2-(piperidin-1-yl)pyrimidin-5-yl)benzo[d][1,3]dioxole-5-carboxamide], the pIC50 (Homo sapiens, Pfeiffer, 264 h) is at least 8.00.

Turning to `CSc1cc(C)[nH]c(=O)c1CNC(=O)c1cc(-c2cnc(N3CCCC3)nc2)c2c(c1C)OC(C)([C@H]1CC[C@H](N(C)C)CC1)O2` (stereo partly drawn) [Compound 5, 2-(trans-4-(dimethylamino)cyclohexyl)-2,4-dimethyl-N-((6-methyl-4-(methylthio)-2-oxo-1,2-dihydropyridin-3-yl)methyl)-7-(2-(pyrrolidin-1-yl)pyrimidin-5-yl)benzo[d][1,3]dioxole-5-carboxamide], the pIC50 (Homo sapiens, Pfeiffer, 264 h) was at least 8.00.

In the case of `CSc1cc(C)[nH]c(=O)c1CNC(=O)c1cc(-c2ccc(CN3CCOCC3)cc2)c2c(c1C)OC(C)([C@H]1CC[C@H](N(C)C)CC1)O2` (stereo partly drawn) [Compound 6, 2-(trans-4-(dimethylamino)cyclohexyl)-2,4-dimethyl-N-((6-methyl-4-(methylthio)-2-oxo-1,2-dihydropyridin-3-yl)methyl)-7-(4-(morpholinomethyl)phenyl)benzo[d][1,3]dioxole-5-carboxamide], the pIC50 (Homo sapiens, Pfeiffer, 264 h) is at least 8.00.

`CSc1cc(C)[nH]c(=O)c1CNC(=O)c1cc(-c2ccc3c(ccn3C)c2)c2c(c1C)OC(C)([C@H]1CC[C@H](N(C)C)CC1)O2` (stereo partly drawn) [Compound 7, 2-(trans-4-(dimethylamino)cyclohexyl)-2,4-dimethyl-7-(1-methyl-1H-indol-5-yl)-N-((6-methyl-4-(methylthio)-2-oxo-1,2-dihydropyridin-3-yl)methyl)benzo[d][1,3]dioxole-5-carboxamide]: under “Homo sapiens, Pfeiffer, 264 h”, the pIC50 is at least 8.00.

In the case of `CSc1cc(C)[nH]c(=O)c1CNC(=O)c1cc(-c2cnc(N3CCC(F)(F)CC3)nc2)c2c(c1C)OC(C)([C@H]1CC[C@H](N(C)C)CC1)O2` (stereo partly drawn) [Compound 8, 7-(2-(4,4-difluoropiperidin-1-yl)pyrimidin-5-yl)-2-(trans-4-(dimethylamino)cyclohexyl)-2,4-dimethyl-N-((6-methyl-4-(methylthio)-2-oxo-1,2-dihydropyridin-3-yl)methyl)benzo[d][1,3]dioxole-5-carboxamide], the pIC50 (Homo sapiens, Pfeiffer, 264 h) is at least 8.00.

In the case of `CSc1cc(C)[nH]c(=O)c1CNC(=O)c1cc(-c2ccc(N3CCOCC3)cc2)c2c(c1C)OC(C)([C@H]1CC[C@H](N(C)C)CC1)O2` (stereo partly drawn) [Compound 9, 2-(trans-4-(dimethylamino)cyclohexyl)-2,4-dimethyl-N-((6-methyl-4-(methylthio)-2-oxo-1,2-dihydropyridin-3-yl)methyl)-7-(4-morpholinophenyl)benzo[d][1,3]dioxole-5-carboxamide], under “Homo sapiens, Pfeiffer, 264 h”, the pIC50 was at least 8.00.

In the case of `CSc1cc(C)[nH]c(=O)c1CNC(=O)c1cc(-c2ccc(F)cc2)c2c(c1C)OC(C)([C@H]1CC[C@H](N(C)C)CC1)O2` (stereo partly drawn) [Compound 10, 2-(trans-4-(dimethylamino)cyclohexyl)-7-(4-fluorophenyl)-2,4-dimethyl-N-((6-methyl-4-(methylthio)-2-oxo-1,2-dihydropyridin-3-yl)methyl)benzo[d][1,3]dioxole-5-carboxamide], the pIC50 (Homo sapiens, Pfeiffer, 264 h) is at least 8.00.

Consider `CSc1cc(C)[nH]c(=O)c1CNC(=O)c1cc(-c2ccsc2)c2c(c1C)OC(C)([C@H]1CC[C@H](N(C)C)CC1)O2` (stereo partly drawn) [Compound 11, 2-(trans-4-(dimethylamino)cyclohexyl)-2,4-dimethyl-N-((6-methyl-4-(methylthio)-2-oxo-1,2-dihydropyridin-3-yl)methyl)-7-(thiophene-3-yl)benzo[d][1,3]dioxole-5-carboxamide], for which the pIC50 (Homo sapiens, Pfeiffer, 264 h) is at least 8.00.

As for `COc1ccc(F)cc1-c1cc(C(=O)NCc2c(SC)cc(C)[nH]c2=O)c(C)c2c1OC(C)([C@H]1CC[C@H](N(C)C)CC1)O2` (stereo partly drawn) [Compound 12, 2-(trans-4-(dimethylamino)cyclohexyl)-7-(5-fluoro-2-methoxyphenyl)-2,4-dimethyl-N-((6-methyl-4-(methylthio)-2-oxo-1,2-dihydropyridin-3-yl)methyl)benzo[d][1,3]dioxole-5-carboxamide], for the setting “Homo sapiens, Pfeiffer, 264 h”, the pIC50 was 7.00 to 8.00.

`CSc1cc(C)[nH]c(=O)c1CNC(=O)c1cc(-c2c(C)noc2C)c2c(c1C)OC(C)([C@H]1CC[C@H](N(C)C)CC1)O2` (stereo partly drawn) [Compound 13, 2-(trans-4-(dimethylamino)cyclohexyl)-7-(3,5-dimethylisoxazol-4-yl)-2,4-dimethyl-N-((6-methyl-4-(methylthio)-2-oxo-1,2-dihydropyridin-3-yl)methyl)benzo[d][1,3]dioxole-5-carboxamide]: where the note is “Homo sapiens, Pfeiffer, 264 h”, the pIC50 is at least 8.00.

In the case of `CSc1cc(C)[nH]c(=O)c1CNC(=O)c1cc(-c2ccc(F)nc2F)c2c(c1C)OC(C)([C@H]1CC[C@H](N(C)C)CC1)O2` (stereo partly drawn) [Compound 14, 7-(2,6-difluoropyridin-3-yl)-2-(trans-4-(dimethylamino)cyclohexyl)-2,4-dimethyl-N-((6-methyl-4-(methylthio)-2-oxo-1,2-dihydropyridin-3-yl)methyl)benzo[d][1,3]dioxole-5-carboxamide], under “Homo sapiens, Pfeiffer, 264 h”, the pIC50 was at least 8.00.

Regarding `CSc1cc(C)[nH]c(=O)c1CNC(=O)c1cc(-c2cnc(N3CCC4(CC3)COC4)nc2)c2c(c1C)OC(C)([C@H]1CC[C@H](N(C)C)CC1)O2` (stereo partly drawn) [Compound 15, 7-(2-(2-oxa-7-azaspiro[3.5]nonan-7-yl)pyrimidin-5-yl)-2-(trans-4-(dimethylamino)cyclohexyl)-2,4-dimethyl-N-((6-methyl-4-(methylthio)-2-oxo-1,2-dihydropyridin-3-yl)methyl)benzo[d][1,3]dioxole-5-carboxamide], the pIC50 (Homo sapiens, Pfeiffer, 264 h) was at least 8.00.

With `CSc1cc(C)[nH]c(=O)c1CNC(=O)c1cc(-c2ccc(N3CC(C)CC(C)C3)nc2)c2c(c1C)OC(C)([C@H]1CC[C@H](N(C)C)CC1)O2` (stereo partly drawn) [Compound 16, 2-(trans-4-(dimethylamino)cyclohexyl)-7-(6-(3,5-dimethylpiperidin-1-yl)pyridin-3-yl)-2,4-dimethyl-N-((6-methyl-4-(methylthio)-2-oxo-1,2-dihydropyridin-3-yl)methyl)benzo[d][1,3]dioxole-5-carboxamide], the pIC50 (Homo sapiens, Pfeiffer, 264 h) was at least 8.00.
